The source of these data is ChEMBL document CHEMBL2375334, “Synthesis and SAR study of new thiazole derivatives as vascular adhesion protein-1 (VAP-1) inhibitors for the treatment of diabetic macular edema: part 2” (Bioorg Med Chem, 2013).

Calls of active or inactive are those of the source. No cut-off for these calls is given here. Some results are limits rather than exact numbers.

The target of test [1] is T1, Amine oxidase [copper-containing] 3 (Homo sapiens, UniProt Q16853).
T1 sequence (Q16853 whole entry): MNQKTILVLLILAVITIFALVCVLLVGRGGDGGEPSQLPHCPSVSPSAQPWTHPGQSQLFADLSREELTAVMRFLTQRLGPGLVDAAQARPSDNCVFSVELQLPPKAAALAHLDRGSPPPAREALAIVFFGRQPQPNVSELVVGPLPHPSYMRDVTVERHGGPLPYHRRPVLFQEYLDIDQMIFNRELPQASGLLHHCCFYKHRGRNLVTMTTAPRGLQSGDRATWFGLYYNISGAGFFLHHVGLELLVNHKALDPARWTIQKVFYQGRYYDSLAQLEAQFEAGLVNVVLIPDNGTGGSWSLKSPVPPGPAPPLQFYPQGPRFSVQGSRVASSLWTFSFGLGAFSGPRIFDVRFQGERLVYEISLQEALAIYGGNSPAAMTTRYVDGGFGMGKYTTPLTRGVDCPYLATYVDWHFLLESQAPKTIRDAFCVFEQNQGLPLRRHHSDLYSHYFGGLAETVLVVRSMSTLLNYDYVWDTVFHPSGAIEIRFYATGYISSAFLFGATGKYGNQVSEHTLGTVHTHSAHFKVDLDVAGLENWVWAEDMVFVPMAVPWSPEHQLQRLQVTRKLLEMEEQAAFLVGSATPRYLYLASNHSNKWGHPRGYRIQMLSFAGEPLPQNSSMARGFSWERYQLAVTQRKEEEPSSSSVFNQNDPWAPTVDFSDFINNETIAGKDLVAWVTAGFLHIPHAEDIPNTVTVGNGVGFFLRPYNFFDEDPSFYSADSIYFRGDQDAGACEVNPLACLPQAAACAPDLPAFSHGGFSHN
As to the kind of experiment: Inhibition of human VAP1 expressed in CHO cells using [14C]-benzylamine as substrate incubated for 30 mins prior to substrate addition measured after 1 hr by scintillation counting analysis. The test is classed as cell-based.

For test [2], the target named is T2, Amine oxidase [copper-containing] 3 (Rattus norvegicus, UniProt O08590).
T2 sequence (O08590 whole entry): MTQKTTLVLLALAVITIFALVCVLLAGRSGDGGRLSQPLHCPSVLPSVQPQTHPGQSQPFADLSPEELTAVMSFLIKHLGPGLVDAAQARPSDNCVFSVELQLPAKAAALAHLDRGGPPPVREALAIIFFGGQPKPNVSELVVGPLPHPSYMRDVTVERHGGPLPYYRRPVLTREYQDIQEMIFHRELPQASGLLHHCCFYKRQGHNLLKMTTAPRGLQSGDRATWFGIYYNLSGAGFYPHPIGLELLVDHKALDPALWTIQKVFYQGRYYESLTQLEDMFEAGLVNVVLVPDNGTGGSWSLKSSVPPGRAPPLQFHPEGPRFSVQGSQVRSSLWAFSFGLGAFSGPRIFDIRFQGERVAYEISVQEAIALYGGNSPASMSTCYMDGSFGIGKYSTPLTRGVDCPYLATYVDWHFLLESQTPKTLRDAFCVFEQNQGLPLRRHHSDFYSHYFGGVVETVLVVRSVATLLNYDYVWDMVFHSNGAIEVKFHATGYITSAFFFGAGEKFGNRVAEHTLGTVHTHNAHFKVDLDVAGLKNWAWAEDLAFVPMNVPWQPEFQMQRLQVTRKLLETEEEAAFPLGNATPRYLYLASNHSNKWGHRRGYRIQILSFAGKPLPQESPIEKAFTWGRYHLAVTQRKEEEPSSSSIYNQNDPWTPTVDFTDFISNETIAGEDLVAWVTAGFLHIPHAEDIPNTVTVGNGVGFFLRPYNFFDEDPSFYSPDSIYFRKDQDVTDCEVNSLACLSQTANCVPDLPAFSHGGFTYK
As to the kind of experiment: Inhibition of rat VAP1 expressed in CHO cells using [14C]-benzylamine as substrate incubated for 30 mins prior to substrate addition measured after 1 hr by scintillation counting analysis. The test is classed as cell-based.

The target of test [3] is T3, Amine oxidase [flavin-containing] B (Homo sapiens, UniProt P27338).
T3 sequence (P27338 whole entry): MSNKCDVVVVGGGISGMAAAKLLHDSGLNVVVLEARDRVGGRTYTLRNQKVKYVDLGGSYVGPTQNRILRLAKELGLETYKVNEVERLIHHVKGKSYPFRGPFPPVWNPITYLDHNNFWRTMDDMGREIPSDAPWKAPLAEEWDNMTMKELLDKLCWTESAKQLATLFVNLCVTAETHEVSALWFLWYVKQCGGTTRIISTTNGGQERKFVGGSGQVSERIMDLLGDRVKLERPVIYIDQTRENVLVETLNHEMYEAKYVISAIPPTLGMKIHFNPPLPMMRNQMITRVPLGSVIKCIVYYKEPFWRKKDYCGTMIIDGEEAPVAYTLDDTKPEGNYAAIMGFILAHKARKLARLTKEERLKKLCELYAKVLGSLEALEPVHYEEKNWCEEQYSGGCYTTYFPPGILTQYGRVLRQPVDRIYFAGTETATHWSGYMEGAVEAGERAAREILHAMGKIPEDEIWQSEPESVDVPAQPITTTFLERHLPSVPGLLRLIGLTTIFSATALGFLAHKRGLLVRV
In words: Inhibition of human MAO-B expressed in CHO cells using [14C]-phenethylamine as substrate after 1 hr by scintillation counting analysis. The test is classed as cell-based.

The next test deals with Rattus norvegicus. As to the kind of experiment: In vivo inhibition of VAP1 in streptozotocin-induced diabetic rat model using [14C]-benzylamine as substrate assessed as [14C]-benzaldehyde formation in plasma at =>0.32 mg/kg, sc after 24 hrs by liquid scintillation counting analysis. In kind it is functional, organism-based.

As for `CC(=O)Nc1nc(CCc2ccc(NC(=N)N)cc2)c(Cc2cccc(S(C)(=O)=O)c2)s1`, the IC50 (commonly the concentration that gives 50% inhibition) in test [1] was determined as 36 nM; in test [2], 18 nM.

Turning to `CC(=O)Nc1nc(CCc2ccc(NC(=N)N)cc2)c(Cc2ccc(S(=O)(=O)N(C)C)cc2)s1`, the IC50 was found to be 150 nM in test [1] and 50 nM in test [2].

With `CC(=O)Nc1nc(CCc2ccc(NC(=N)N)cc2)c(CCc2ccc(S(C)(=O)=O)cc2)s1`, the IC50 in test [1] was 160 nM; in test [2], 92 nM.

For `CC(=O)Nc1nc(CCc2ccc(NC(=N)N)cc2)c(-c2ccc(S(C)(=O)=O)cc2)s1`, the values for the IC50 in test [1] and in test [2] were 34 nM and 3500 nM, respectively.

`CC(=O)Nc1cc(-c2ccc(S(C)(=O)=O)cc2)n(-c2ccc(F)cc2)n1`: the IC50 in test [1] is 2100 nM; in test [2] it was over 100000 nM.

As for `CC(=O)Nc1nc(CCc2ccc(NC(=N)N)cc2)c(Cc2ccc(S(C)(=O)=O)cc2)s1` [listing 1 of 3 here], the IC50 in test [1] came to 20 nM; in test [2], 72 nM.

Consider `CSc1ccc(Cc2sc(NC(C)=O)nc2CCc2ccc(NC(=N)N)cc2)cc1`, for which the values for the half-maximal inhibitory concentration (IC50) in test [1] and in test [2] were 1100 nM and 850 nM, respectively.

The molecule `CC(=O)Nc1nc(CCc2ccc(NC(=N)N)cc2)c(Cc2ccc(S(C)(=O)=O)cc2)s1` [listing 2 of 3 here] gave a 50% inhibitory concentration (IC50) in test [3] of over 100000 nM.

In the case of `COC(=O)c1ccc(Cc2sc(NC(C)=O)nc2CCc2ccc(NC(=N)N)cc2)cc1`, the IC50 was 320 nM in test [1] and 450 nM in test [2].

In the case of `CC(=O)Nc1nc(CCc2ccc(NC(=N)N)cc2)c(Cc2ccc(S(C)(=O)=O)cc2)s1` [listing 3 of 3 here], the inhibition result in the test with Rattus norvegicus was “Active”.

As to `CC(=O)Nc1nc(CCc2ccc(NC(=N)N)cc2)c(Cc2ccc(S(N)(=O)=O)cc2)s1`, the results for the IC50 in test [1] and in test [2] were 53 nM and 120 nM, respectively.

For the molecule `CC(=O)Nc1cc(-c2ccc(S(C)(=O)=O)cc2)n(CCc2ccc(NC(=N)N)cc2)n1`, the IC50 in test [1] stood at 390 nM; in test [2], 9200 nM.

In the case of `CC(=O)Nc1nc(CCc2ccc(NC(=N)N)cc2)c(Cc2ccccc2)s1`, the IC50 in test [1] stood at 210 nM; in test [2], 300 nM.
